Test: Salt screen, comments on water content / hydration versus humidity
Assay type: physicochemical
Description: Experiments to form salts were performed and evaluated using 45 different acids and bases and 15 different solvents, either alone or in some combination, which are listed in Table 1 below, and notable results of those experiments are presented in Table 2 below. L-arginine Saccharin Methyl isobutyl ketone

Structure (SMILES)	level of hydration over humidity range (Additional Comments) (0.5 equiv, polymorph formed at higher (>70° C.) temperature compared with polymorph formed at ambient temp)	hygroscopicity (Additional Comments) (1.0 equiv, water, highly variable water content based on humidity)
O=C(O)[C@H](O)[C@@H](O)C(=O)O [L-Tartaric Acid]	temperature had a more stable level	–
Cc1nc(N2CC([C@H]3CCCN([C@H]4C[C@](C)(C(=O)[O-])C4)C3)C2)nc(N[C@H](C)c2ccc(Cl)cc2Cl)c1Cl.[Na+] [NaOH, (1R,3r)-3-((R)-3-(1-(5-chloro-4-(((R)-1-(2,4-dichlorophenyl)ethyl)amino)-6-methylpyrimidin-2-yl)azetidin-3-yl)piperidin-1-yl)-1-methylcyclobutane-1-carboxylic acid, sodium salt]	–	Highly hydroscopic (highly variable

Reference: US20250034115A1, “CRYSTALLINE FORMS OF C-C CHEMOKINE RECEPTOR TYPE 4 ANTAGONIST AND USES THEREOF” (RAPT THERAPEUTICS, INC., priority 2023, published 2025)
